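Grown in 96-well plates, cells were treated for 48 hours with each compound at five concentrations. Insufficient inhibition: endpoint recorded as highest concentration tested. TGI: total growth inhibition.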
Assays:
Experiment in all cases: NCI anticancer screen, dose series, 48 h
KM12 colon = tested on: KM12 colon
OVCAR-3 ovarian = tested on: OVCAR-3 ovarian
CAKI-1 renal = tested on: CAKI-1 renal
SF-295 CNS = tested on: SF-295 CNS
ACHN renal = tested on: ACHN renal
NCI-H460 lung = tested on: NCI-H460 lung
DLD-1 colon = tested on: DLD-1 colon
LOX IMVI melanoma = tested on: LOX IMVI melanoma
UACC-62 melanoma = tested on: UACC-62 melanoma
M19-MEL melanoma = tested on: M19-MEL melanoma
DMS 114 small cell lung = tested on: DMS 114 small cell lung
DMS 273 small cell lung = tested on: DMS 273 small cell lung
OVCAR-8 ovarian = tested on: OVCAR-8 ovarian
SF-268 CNS = tested on: SF-268 CNS
M14 melanoma = tested on: M14 melanoma
U251 CNS = tested on: U251 CNS
IGROV1 ovarian = tested on: IGROV1 ovarian
SR leukemia = tested on: SR leukemia
NCI-H522 lung = tested on: NCI-H522 lung
NCI-H226 lung = tested on: NCI-H226 lung
HCC-2998 colon = tested on: HCC-2998 colon
MOLT-4 leukemia = tested on: MOLT-4 leukemia
RXF 393 renal = tested on: RXF 393 renal
A549 NSCLC = tested on: A549 NSCLC
NCI-H23 lung = tested on: NCI-H23 lung
EKVX NSCLC = tested on: EKVX NSCLC
SNB-19 CNS = tested on: SNB-19 CNS
HOP-18 NSCLC = tested on: HOP-18 NSCLC
HOP-92 NSCLC = tested on: HOP-92 NSCLC
MALME-3M melanoma = tested on: MALME-3M melanoma
COLO 205 colon = tested on: COLO 205 colon
HOP-62 NSCLC = tested on: HOP-62 NSCLC
TK-10 renal = tested on: TK-10 renal
SK-MEL-5 melanoma = tested on: SK-MEL-5 melanoma
OVCAR-5 ovarian = tested on: OVCAR-5 ovarian
SK-MEL-28 melanoma = tested on: SK-MEL-28 melanoma
A498 renal = tested on: A498 renal
RPMI-8226 leukemia = tested on: RPMI-8226 leukemia
SK-OV-3 ovarian = tested on: SK-OV-3 ovarian
XF 498 CNS = tested on: XF 498 CNS
LXFL 529 NSCLC = tested on: LXFL 529 NSCLC
SK-MEL-2 melanoma = tested on: SK-MEL-2 melanoma
SW-620 colon = tested on: SW-620 colon
786-0 renal = tested on: 786-0 renal
HT29 colon = tested on: HT29 colon
UO-31 renal = tested on: UO-31 renal
HCT-116 colon = tested on: HCT-116 colon
CCRF-CEM leukemia = tested on: CCRF-CEM leukemia
SNB-75 CNS = tested on: SNB-75 CNS
OVCAR-4 ovarian = tested on: OVCAR-4 ovarian
UACC-257 melanoma = tested on: UACC-257 melanoma
SF-539 CNS = tested on: SF-539 CNS
K-562 leukemia = tested on: K-562 leukemia
SN12C renal = tested on: SN12C renal
HCT-15 colon = tested on: HCT-15 colon
KM20L2 colon = tested on: KM20L2 colon
HL-60(TB) leukemia = tested on: HL-60(TB) leukemia

Measured: TGI

[N-]=[N+]=NC1C2CC3C4CC5CC3[C@H](C2)C(C5)C41 (some centres not stated)
> 100 µM: KM12 colon | OVCAR-3 ovarian | CAKI-1 renal | SF-295 CNS | ACHN renal | NCI-H460 lung | DLD-1 colon | LOX IMVI melanoma | UACC-62 melanoma | M19-MEL melanoma | DMS 114 small cell lung | DMS 273 small cell lung | OVCAR-8 ovarian | SF-268 CNS | M14 melanoma | U251 CNS | IGROV1 ovarian | SR leukemia | NCI-H522 lung | NCI-H226 lung | HCC-2998 colon | MOLT-4 leukemia | RXF 393 renal | A549 NSCLC | NCI-H23 lung | EKVX NSCLC | SNB-19 CNS | HOP-18 NSCLC | HOP-92 NSCLC | MALME-3M melanoma | COLO 205 colon | HOP-62 NSCLC | TK-10 renal | SK-MEL-5 melanoma | OVCAR-5 ovarian | SK-MEL-28 melanoma | A498 renal | RPMI-8226 leukemia | SK-OV-3 ovarian | XF 498 CNS | LXFL 529 NSCLC | SK-MEL-2 melanoma | SW-620 colon | 786-0 renal | HT29 colon | UO-31 renal | HCT-116 colon | CCRF-CEM leukemia | SNB-75 CNS | OVCAR-4 ovarian | UACC-257 melanoma | SF-539 CNS | K-562 leukemia | SN12C renal

Cc1ccccc1N(CC(=O)O)S(=O)(=O)c1ccccc1
> 100 µM: KM12 colon | OVCAR-3 ovarian | CAKI-1 renal | SF-295 CNS | ACHN renal | NCI-H460 lung | DLD-1 colon | LOX IMVI melanoma | UACC-62 melanoma | M19-MEL melanoma | DMS 273 small cell lung | OVCAR-8 ovarian | HCT-15 colon | SF-268 CNS | M14 melanoma | U251 CNS | IGROV1 ovarian | NCI-H522 lung | KM20L2 colon | NCI-H226 lung | HCC-2998 colon | MOLT-4 leukemia | RXF 393 renal | A549 NSCLC | NCI-H23 lung | EKVX NSCLC | SNB-19 CNS | HOP-18 NSCLC | HOP-92 NSCLC | MALME-3M melanoma | COLO 205 colon | TK-10 renal | SK-MEL-5 melanoma | OVCAR-5 ovarian | SK-MEL-28 melanoma | A498 renal | RPMI-8226 leukemia | SK-OV-3 ovarian | XF 498 CNS | LXFL 529 NSCLC | SK-MEL-2 melanoma | SW-620 colon | 786-0 renal | HT29 colon | UO-31 renal | CCRF-CEM leukemia | SNB-75 CNS | OVCAR-4 ovarian | UACC-257 melanoma | HL-60(TB) leukemia | SF-539 CNS | K-562 leukemia | SN12C renal

From PubChem BioAssay (NCI)
